Source: ChEMBL document CHEMBL4825722, “Discovery of Potent Selective Nonzinc Binding Autotaxin Inhibitor BIO-32546” (ACS Med Chem Lett, 2021)

How the values were obtained:
Autotaxin = Autotaxin (Homo sapiens, UniProt Q13822); assay: Inhibition of human ATX assessed as reduction in LPA formation using FS-3 as substrate preincubated for 30 mins followed by substrate addition and measured after 2 hrs by FRET assay
hERG (KCNH2) [1] = target: T1, hERG (KCNH2) (Homo sapiens, UniProt Q12809); assay: Inhibition of human ERG at 10 uM by automated patch-clamp assay relative to control
hERG (KCNH2) [2] = target: T1, hERG (KCNH2); assay: Inhibition of human ERG at 1 uM by automated patch-clamp assay relative to control
[3] = Total brain to plasma concentration ratio in rat at 10 mg/kg, po measured after 4 hrs; type: ADME, organism-based; settings: brain and plasma, read-out: BPR
[4] = Drug concentration in rat brain at 10 mg/kg, po after 4 hrs; type: ADME, organism-based; settings: read-out: Ct
[5] = Protein binding in human plasma assessed as unbound fraction at 2 uM by rapid equilibrium dialysis method; type: ADME, cell-free
[6] = Protein binding in rat plasma assessed as unbound fraction; type: ADME, cell-free
[7] = Clearance in rat at 10 mg/kg, po; type: ADME, organism-based; settings: in vivo

T1 sequence (Q12809 whole entry): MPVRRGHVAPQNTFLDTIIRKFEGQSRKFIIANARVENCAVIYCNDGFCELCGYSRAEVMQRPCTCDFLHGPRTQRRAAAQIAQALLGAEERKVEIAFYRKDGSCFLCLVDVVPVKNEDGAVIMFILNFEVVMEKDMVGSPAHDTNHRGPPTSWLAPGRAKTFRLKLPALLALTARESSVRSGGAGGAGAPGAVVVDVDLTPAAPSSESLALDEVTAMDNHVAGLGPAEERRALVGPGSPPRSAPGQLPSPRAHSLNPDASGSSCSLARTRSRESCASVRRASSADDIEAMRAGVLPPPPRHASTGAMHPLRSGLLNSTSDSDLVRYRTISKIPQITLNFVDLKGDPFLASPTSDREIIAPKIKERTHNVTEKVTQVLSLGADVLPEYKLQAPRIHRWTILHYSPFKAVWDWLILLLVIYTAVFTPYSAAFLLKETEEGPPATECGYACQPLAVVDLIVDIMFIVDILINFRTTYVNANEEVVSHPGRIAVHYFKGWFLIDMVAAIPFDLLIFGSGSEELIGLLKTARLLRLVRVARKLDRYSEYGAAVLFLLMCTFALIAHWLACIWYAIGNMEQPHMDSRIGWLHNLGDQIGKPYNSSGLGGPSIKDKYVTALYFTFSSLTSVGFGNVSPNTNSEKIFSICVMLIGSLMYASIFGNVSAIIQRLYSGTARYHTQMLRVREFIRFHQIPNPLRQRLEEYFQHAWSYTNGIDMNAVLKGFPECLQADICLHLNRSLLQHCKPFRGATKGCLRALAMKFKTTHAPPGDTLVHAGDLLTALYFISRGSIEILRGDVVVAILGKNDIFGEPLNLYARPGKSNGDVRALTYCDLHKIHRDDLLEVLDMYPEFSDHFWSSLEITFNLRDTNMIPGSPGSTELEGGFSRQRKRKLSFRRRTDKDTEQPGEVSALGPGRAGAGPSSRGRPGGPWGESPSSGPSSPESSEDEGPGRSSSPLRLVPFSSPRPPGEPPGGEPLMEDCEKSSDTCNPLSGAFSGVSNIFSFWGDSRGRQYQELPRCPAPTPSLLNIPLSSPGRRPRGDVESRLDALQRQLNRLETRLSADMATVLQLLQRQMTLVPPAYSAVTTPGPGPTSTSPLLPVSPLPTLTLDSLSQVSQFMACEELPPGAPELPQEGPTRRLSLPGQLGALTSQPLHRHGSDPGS

Row | Structure (SMILES) | IC50 (Autotaxin) [nM] | inhibition at 10 µM (hERG (KCNH2) [1]) [%] | inhibition at 1 µM (hERG (KCNH2) [2]) [%] | also measured
1 | C[C@H]1CC[C@@H](Oc2ccc3ccc(CN4C5CCC4CC(C(=O)O)C5)cc3c2C(F)(F)F)CC1 (some centres not stated) | 100 | 65 | 6 | 
2 | C[C@@H](c1ccc2ccc(O[C@H]3CC[C@@H](C)CC3)c(C(F)(F)F)c2c1)N1C2CCC1CC(C(=O)O)C2 (some centres not stated) |  |  |  | Kp at 4 h [3]: 0.8; concentration at 4 h [4]: 103 ng/mL; Fu [5]: 0.18%; Fu [6]: 0.22%; CL/F [7]: 94 mL/min/kg
3 | C[C@H]1CC[C@@H](Oc2ccc3cc(CN4C5CCCC4CC(C(=O)O)C5)ccc3c2C(F)(F)F)CC1 (some centres not stated) | 38 | 52.7 | 1.6 | 
4 | C[C@H](c1ccc2ccc(O[C@H]3CC[C@@H](C)CC3)c(C(F)(F)F)c2c1)N1C2CCCC1CC(C(=O)O)C2 (some centres not stated) | 330 | 29.6 | 8.4 | 
5 | O=C(O)CCCNC(=O)c1ccc2c(C(F)(F)F)c(O[C@H]3CC[C@@H](C(F)(F)F)CC3)ccc2c1 | 3700 |  |  | 
6 | C[C@H]1CC[C@@H](Oc2ccc3ccc(CN4C5CCCC4CC(C(=O)O)C5)cc3c2C(F)(F)F)CC1 (some centres not stated) | 8.2 | 84 | 12 | 
7 | O=C(O)C1CCN(Cc2ccc3c(C(F)(F)F)c(O[C@H]4CC[C@@H](C(F)(F)F)CC4)ccc3c2)CC1 | 370 | 86.8 | 6.6 | 
8 | C[C@@H](c1ccc2ccc(O[C@H]3CC[C@@H](C)CC3)c(C(F)(F)F)c2c1)N1C2CCCC1CC(C(=O)O)C2 (some centres not stated) | 3.6 | 24.4 | 4.6 | 
9 | CCCCCCCCCCCCCC(=O)OC[C@@H](O)COP(=O)(O)O | 110 |  |  | 
10 | O=C(NCCCP(=O)(O)O)c1ccc2c(C(F)(F)F)c(O[C@H]3CC[C@@H](C(F)(F)F)CC3)ccc2c1 | 28 |  |  | 
11 | O=C(O)CCCNCc1ccc2c(C(F)(F)F)c(O[C@H]3CC[C@@H](C(F)(F)F)CC3)ccc2c1 | 1300 |  |  | 
